# Measured values: patent US20190008879A1 (priority 2017, published 2019)
# Columns and labels:
# periampullary cancer = test: Preventive consumption of phytin by the patient before the diagnosis; format: in vivo, human; settings: 1.4 g/day phytin solubilized in citric acid, oral, for 5 years before diagnosis
# Description: Before their admission to emergency department, the patient consumed, on a regular basis, with a view to prevention and for 5 years as an oral food supplement, 1.4 g/day of phytin solubilized in citric acid.
# [1] = tested on: invasive ductal breast cancer; settings: 6 g/d in addition to chemotherapy, six months, 14 patients; cited from earlier work
# [2] = tested on: mammary tumor cell line MCF-7; test: In vitro antitumor activity on MCF-7, noted by the inventor; format: cell-based, human; settings: MCF-7 strain
# PI3K/Akt pathway = settings: cited from earlier work
compound,measurement,setting,value
phytin,antitumor activity in human in the absence of magnesium chloride,periampullary cancer,does not have antitumor activity in human
same,cytopenia (leucocyte and platelet quantitative deficiency),[1],preserved from cytopenia
same,tumor progression,[1],no impact on tumor progression
O[C@H]1[C@H](O)[C@@H](O)[C@H](O)[C@@H](O)[C@H]1O [myo-inositol],in vitro antitumor action,[2],no in vitro antitumor action
"O=P(O)(O)O[C@@H]1[C@@H](OP(=O)(O)O)[C@H](OP(=O)(O)O)[C@H](O)[C@H](OP(=O)(O)O)[C@H]1OP(=O)(O)O [myo-inositol 1,3,4,5,6 pentakis phosphate]",antitumor activity compared with phytin,PI3K/Akt pathway,higher than that of phytin
same,anti-angiogenic action,PI3K/Akt pathway; concentration of 50 μM,anti-angiogenic action by inhibiting the PI3K/Akt pathway
